Measured values taken from PubChem BioAssay (NCI).
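Briefly, cells in 96-well plates were exposed to five compound concentrations for 48 h, and endpoints were estimated by linear interpolation. Abbreviation: GI50, concentration required for 50% inhibition of growth. At the TGI there is no net growth.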

Experiments:
Experiment in all cases: growth of human tumour cells (NCI), 48 h
786-0 renal = system: 786-0 renal
HL-60(TB) leukemia = system: HL-60(TB) leukemia
KM12 colon = system: KM12 colon
SK-MEL-28 melanoma = system: SK-MEL-28 melanoma
SK-OV-3 ovarian = system: SK-OV-3 ovarian
SW-620 colon = system: SW-620 colon
TK-10 renal = system: TK-10 renal
UACC-62 melanoma = system: UACC-62 melanoma
MCF7 breast = system: MCF7 breast
MDA-MB-231 breast = system: MDA-MB-231 breast

Row | Compound | TGI (786-0 renal) | TGI (HL-60(TB) leukemia) | TGI (KM12 colon) | TGI (SK-MEL-28 melanoma) | TGI (SK-OV-3 ovarian) | TGI (SW-620 colon) | TGI (TK-10 renal) | TGI (UACC-62 melanoma) | GI50 (786-0 renal) | GI50 (KM12 colon) | GI50 (MCF7 breast) | TGI (MCF7 breast) | GI50 (MDA-MB-231 breast) | TGI (MDA-MB-231 breast) | GI50 (SK-OV-3 ovarian) | GI50 (SW-620 colon) | GI50 (TK-10 renal) | GI50 (UACC-62 melanoma) | GI50 (HL-60(TB) leukemia) | GI50 (SK-MEL-28 melanoma)
1 | CCOc1ccc(NC(=O)CC2Sc3ccccc3NC2=O)cc1 (configuration not stated) | 39.3 µM | > 100 µM | 95.2 µM | > 100 µM | > 100 µM | 33.5 µM | > 100 µM | > 100 µM |  |  |  |  |  |  |  |  |  |  |  | 
2 | O=C1/C(=C/c2ccc(F)cc2)CCOc2ccc([N+](=O)[O-])cc21 | 3.5 µM |  | 4.4 µM |  | 32.6 µM | 4.04 µM | 16.1 µM | 4.01 µM | 1.8 µM | 1.83 µM | 2.91 µM | 9.29 µM | 13.3 µM | 31.9 µM | 17 µM | 1.35 µM | 3.88 µM | 2.19 µM |  | 
3 | CCOC(=O)C1(CC)CCCCC(=O)N1 (configuration not stated) | > 100 µM | > 100 µM |  | > 100 µM | > 100 µM | > 100 µM | > 100 µM | > 100 µM |  |  |  |  |  |  |  |  |  |  |  | 
4 | O=C1NC2(CCCC2)C(=O)C12CCCC2 | > 100 µM | > 100 µM | > 100 µM | > 100 µM | > 100 µM | > 100 µM | > 100 µM | > 100 µM |  |  |  |  |  |  |  |  |  |  |  | 
5 | COc1cccc(/C=C/C(=O)c2cc3c(N)c(C(=O)Nc4ccccc4C)sc3nc2C)c1 | 1.93 µM | 2.63 µM | 3.62 µM |  | 38.8 µM | 2.32 µM | 6.21 µM | 2 µM | 0.912 µM | 1.27 µM | 1.29 µM | 6.1 µM | 1.46 µM | 4.08 µM | 5.03 µM | 1.01 µM | 1.55 µM | 0.905 µM | 1.1 µM | 
6 | C#CCNC(=O)NC(CCCNC(=O)OCc1ccccc1)C(=O)OCc1ccccc1 (configuration not stated) | > 100 µM | 59.3 µM | > 100 µM | > 100 µM | > 100 µM | > 100 µM | > 100 µM | > 100 µM |  |  |  |  |  |  |  |  |  |  |  | 
7 | Cc1ccccc1C(C#N)C(=O)C(=O)Nc1nc([N+](=O)[O-])cs1 (configuration not stated) | > 100 µM | > 100 µM | > 100 µM | > 100 µM | > 100 µM | > 100 µM | > 100 µM | > 100 µM |  |  |  |  |  |  |  |  |  |  |  | 
8 | CC(=O)[CH-]C(=O)c1ccccc1.CC(=O)[CH-]C(=O)c1ccccc1.CCCCCCCCCCCCCCCCCC(=O)[O-].CCCCCCCCCCCCCCCCCC(=O)[O-].[Ti+4] | 33.2 µM | 43.9 µM | > 100 µM | 60.5 µM | 37.9 µM | > 100 µM | 99.1 µM | 41.5 µM | 18.8 µM | 33.6 µM |  |  |  |  | 21.9 µM | 33.3 µM | 34.8 µM | 18.7 µM | 19.3 µM | 23.7 µM
9 | CNC(=O)c1ccccc1CC1(O)c2ccccc2Oc2ccccc21 | 46.4 µM |  | 44.6 µM | > 100 µM | 87.3 µM | > 100 µM | 89.9 µM | 52.6 µM | 20.3 µM | 8.15 µM | 5.08 µM | 44.5 µM | 15 µM | 83.3 µM | 24 µM | 14 µM | 26.6 µM | 10.4 µM |  | 23.2 µM
10 | C1COCCN1.C1COCCN1.N.N.[Cl-].[Pt+2] | > 100 µM |  |  | > 100 µM |  | > 100 µM | > 100 µM | > 100 µM | > 100 µM |  |  |  |  |  |  | > 100 µM | > 100 µM | > 100 µM |  | > 100 µM
11 | CC(=O)c1ccc(Nc2cc(-c3ccccc3)nc3c(O)cccc23)cc1 | 83.4 µM | 30.6 µM | > 100 µM | 88.8 µM | > 100 µM | > 100 µM | 84.8 µM | 29.6 µM | 8.8 µM | 5.72 µM |  |  | 24 µM | 55.7 µM | 57.1 µM | 7.06 µM | 18.1 µM | 12.7 µM | 3.13 µM | 23.1 µM
12 | O=[N+]([O-])[C@@H]1C2C=CC(C2)[C@H]1Cl (some centres not stated) | > 100 µM | > 100 µM | > 100 µM | > 100 µM | > 100 µM | > 100 µM | > 100 µM | > 100 µM |  |  |  |  |  |  |  |  |  |  |  | 
13 | O=C(/C=C/c1ccc(Cl)cc1)c1ccc(Cl)cc1Cl | 15.8 µM | 27.9 µM | 13.8 µM |  | 14.5 µM | 6.31 µM | 14 µM | 12.4 µM | 7.05 µM | 5.73 µM | 6.28 µM | 23 µM | 10.9 µM | 22.1 µM | 6.84 µM | 1.88 µM | 7.42 µM | 1.28 µM | 7.25 µM | 
14 | C=CC1=CSNN1 | > 100 µM | > 100 µM | > 100 µM | > 100 µM | > 100 µM | > 100 µM | > 100 µM | > 100 µM |  |  |  |  |  |  |  |  |  |  |  | 
15 | CC(=O)OC1=C2CC3(C)OC(=O)CC(C)(C)C3=CC=C2C=C(C(C)C)C1=O (configuration not stated) | 0.388 µM | 0.888 µM | 3.07 µM | 1.31 µM | 3.54 µM | 1.14 µM | 2.51 µM | 0.725 µM |  |  |  |  |  |  |  |  |  |  |  | 
16 | C=CCSC[C@H](NC(=O)COc1ccccc1)C(=O)NC(C(=O)OCc1ccc([N+](=O)[O-])cc1)=C(C)C | > 100 µM | > 100 µM | > 100 µM | > 100 µM | > 100 µM |  |  | > 100 µM |  |  |  |  |  |  |  |  |  |  |  | 
17 | CCOC(=O)CC1=Nc2ccccc2SC1 | > 100 µM |  | > 100 µM | 2.73 µM |  | > 100 µM | > 100 µM | > 100 µM |  |  |  |  |  |  |  |  |  |  |  | 
18 | Cc1nn(-c2ccc(S(=O)(=O)[O-])cc2)c([O-])c1N=[N+](C)c1ccc(-c2ccc(N=Nc3ccc4c(S(=O)(=O)[O-])cc(S(=O)(=O)[O-])c(N)c4c3[O-])c([O-])c2)cc1[O-].[Cu+2].[Cu+2].[Na+] | > 100 µM |  | > 100 µM | > 100 µM | > 100 µM | > 100 µM | > 100 µM | > 100 µM | > 100 µM | > 100 µM | > 100 µM | > 100 µM | > 100 µM | > 100 µM | > 100 µM | > 100 µM | > 100 µM | > 100 µM |  | > 100 µM
